From patent US8410166B2, “Fused bicyclic compound” (Mitsubishi Tanabe Pharma Corporation, priority 2007, dated 2013)

Each compound was assayed against T1, mineralocorticoid receptor (MR) (Rattus norvegicus, UniProt P22199) (assay: Aldosterone receptor binding assay (rat kidney cytosol, [3H]aldosterone)). Details: MR derived from rat kidney, 3H-aldosterone; read-out: Ki values in 3H-aldosterone binding to MR.
T1 construct: the homogenate was centrifuged at 100,000×g for 1 hour to give a supernatant as a kidney cytosol fraction; from tissue; host or cells: kidney cytosol fraction of adrenalectomised male Sprague-Dawley rats
T1 sequence (P22199 1-981): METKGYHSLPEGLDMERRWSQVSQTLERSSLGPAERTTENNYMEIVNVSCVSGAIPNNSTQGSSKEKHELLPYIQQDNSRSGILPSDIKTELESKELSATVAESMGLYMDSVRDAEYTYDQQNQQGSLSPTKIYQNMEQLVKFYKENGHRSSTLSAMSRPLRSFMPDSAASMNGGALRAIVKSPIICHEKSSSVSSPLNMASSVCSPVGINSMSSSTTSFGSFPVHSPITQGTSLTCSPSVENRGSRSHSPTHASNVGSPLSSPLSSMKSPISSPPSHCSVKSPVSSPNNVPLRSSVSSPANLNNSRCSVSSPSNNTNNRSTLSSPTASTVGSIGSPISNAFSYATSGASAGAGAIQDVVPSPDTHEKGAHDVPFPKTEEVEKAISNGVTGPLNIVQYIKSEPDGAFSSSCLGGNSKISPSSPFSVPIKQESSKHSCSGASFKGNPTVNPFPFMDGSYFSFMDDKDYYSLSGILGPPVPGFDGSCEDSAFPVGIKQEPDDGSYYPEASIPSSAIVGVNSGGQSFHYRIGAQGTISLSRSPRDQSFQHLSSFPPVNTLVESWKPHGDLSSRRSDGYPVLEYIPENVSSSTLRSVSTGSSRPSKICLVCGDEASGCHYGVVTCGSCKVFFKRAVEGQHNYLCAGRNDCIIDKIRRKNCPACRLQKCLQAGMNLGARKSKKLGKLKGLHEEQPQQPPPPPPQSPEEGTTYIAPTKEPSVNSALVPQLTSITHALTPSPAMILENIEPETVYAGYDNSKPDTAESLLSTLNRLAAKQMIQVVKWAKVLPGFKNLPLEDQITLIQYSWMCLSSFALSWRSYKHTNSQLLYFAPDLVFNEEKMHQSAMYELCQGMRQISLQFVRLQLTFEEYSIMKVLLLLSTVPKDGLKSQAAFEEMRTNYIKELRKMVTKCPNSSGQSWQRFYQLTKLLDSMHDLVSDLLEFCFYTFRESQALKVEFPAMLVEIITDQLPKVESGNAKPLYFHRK
Procedure: The compound of the present invention has a high affinity to a mineralocorticoid receptor (MR) of mammals. For example, in a biding assay using a rat MR and ^3H-aldosterone, which was conducted according to a method disclosed in The Journal of Pharmacology and Experimental Therapeutics, 1987; 240: p. […] Accordingly, the compound [I] is useful for treating and/or preventing the diseases associated with MR, e.g., circulatory system disease including hypertension and heart failure etc.
[Aldosterone Receptor Binding Assay]
(1) Preparation of Kidney Cytosol Fraction:
Kidneys derived from post-adrenalectomy Sprague-Dawley male rats (7 weeks old) were homogenized in the following buffer solution and the homogenate was centrifuged at 100,000×g for 1 hour to give a supernatant as a kidney cytosol fraction (protein concentration: 15 mg/mL) for the present biding assay.
Composition of Buffer Solution:
50 mM Tris-HCl (pH 7.5), 250 mM Sucrose, 50 mM Potassium chloride, 3 mM Magnesium chloride, 20 mM Sodium molybdate and 1 mM Mercaptoethanol
A mixture of 5 μL of a solution of each test compound in dimethylsulfoxide, 200 μL of kidney cytosol fraction, 50 μL of physiological saline (or 50 μL of unlabeled aldosterone solution (final concentration: 1 μM) and 50 μL of [^3H] aldosterone solution (ca. 2 nM) was incubated in a test tube at 4° C. overnight. Thereto was added 100 μL of dextrane-coated charcoal/10 mM Tris-HCl buffer and the mixture was incubated at 4° C. for 30 minutes. The reaction mixture was centrifuged at 3000 rpm for 10 minutes and to the supernatant (150 μL) was added 5 mL of a scintillater (Clearsol I, Nakarai Tesque). The radioactivity was measured by a liquid scintilation counter (TRI CARB 2200C A, Packard). The concentration of each test compound required to produce 50% inhibition of aldosterone-binding to receptors (IC50; μM) was calculated on the basis of the above quantitated radioactivity. Moreover, the dissociation constant (Ki) of each test compound was calculated on Cheng and Prusoff s equation (Ki=IC50/(1+[L]/Kd), wherein [L] is [^3H]aldosterone concentration and Kd is the affinity constant of aldosterone).

**Q.** `CC1(C)Oc2cc(N)ccc2C(c2ccc(F)cc2)=C1C#N` [7-amino-4-(4-fluorophenyl)-2,2-dimethyl-2H-chromen-3-carbonitrile] was tested. Which Ki did it give?
**A.** The Ki was less than 10000 nM.

**Q.** With `CC1=C(c2ccc(F)cc2)c2ccc(NS(C)(=O)=O)cc2OC1(C)C` [Example 6, N-[4-(4-fluorophenyl)-2,2,3-trimethyl-2H-chromen-7-yl]methanesulfonamide] as the compound, how does the Ki read?
**A.** Its Ki is less than 10000 nM.

**Q.** `CC1(C)N=C(c2ccc(F)cc2)c2c(F)cc(N)cc2O1` [5-fluoro-4-(4-fluorophenyl)-2,2-dimethyl-2H-1,3-benzoxazin-7-amine] was tested. Which Ki did it give?
**A.** Its Ki is less than 10000 nM.

**Q.** How did the Ki turn out when `CC1(C)N=C(c2ccc(Cl)cc2)c2ccc(NS(C)(=O)=O)cc2O1` [Example 1, N-[4-(4-chlorophenyl)-2.2-dimethyl-2H-1,3-benzoxazin-7-yl]methanesulfonamide] was run?
**A.** The Ki was less than 10000 nM.

Same assay, conditions: [3H]aldosterone binding to MR of rat kidney cytosol fraction; Ki by Cheng-Prusoff; read-out: Ki

**Q.** For `CC1(C)N=C(c2csc3ccccc23)c2ccc(NS(C)(=O)=O)cc2O1` [Example 26], which Ki is on record?
**A.** The Ki was less than 500 nM.

**Q.** How did the Ki turn out when `CS(=O)(=O)Nc1ccc2c(c1)OC1(CCCC1)C(C#N)=C2c1ccc(F)cc1` [Example 55(2) compound (a), N-[3-cyano-4-(4-fluorophenyl)spiro[chromen-2′,1′-cyclopentan]-7-yl]methanesulfonamide] was run?
**A.** The Ki was less than 500 nM.

**Q.** With `CC1(C)N=C(c2ccccc2)c2ccc(NS(C)(=O)=O)cc2O1` [Example 10] as the compound, how does the Ki read?
**A.** Its Ki is 500 to 1000 nM.

**Q.** For `CNS(=O)(=O)c1ccc2c(c1)OC(C)(C)N=C2c1ccc(F)cc1` [Example 61, N,2,2-trimethyl-4-(4-fluorophenyl)-2H-1,3-benzoxazin-7-sulfonamide], which Ki is on record?
**A.** The Ki was 500 to 1000 nM.

**Q.** For `CC1(C)CC(c2ccc(F)cc2)c2ccc(NS(C)(=O)=O)cc2O1` (centres unmarked) [Example 8, N-[4-(4-fluorophenyl)-2,2-dimethyl-3,4-dihydro-2H-chromen-7-yl]methanesulfonamide], which Ki is on record?
**A.** Its Ki is less than 500 nM.

**Q.** With `CC1(C)Oc2cc(NS(C)(=O)=O)ccc2C(c2ccc(Cl)c(F)c2)=C1C#N` [Example 53] as the compound, how does the Ki read?
**A.** The Ki was less than 500 nM.

**Q.** How did the Ki turn out when `Cc1cc(Cl)ccc1C1=CC(C)(C)Oc2cc(NS(C)(=O)=O)ccc21` [Example 42] was run?
**A.** Its Ki is less than 500 nM.

**Q.** For `CC1=C(c2ccc(F)cc2)c2ccc(NS(C)(=O)=O)cc2OC1(C)C` [Example 6, N-[4-(4-fluorophenyl)-2,2,3-trimethyl-2H-chromen-7-yl]methanesulfonamide], which Ki is on record?
**A.** The Ki was less than 500 nM.

**Q.** `CC1(C)N=C(c2ccc(Cl)cc2)c2ccc(NS(C)(=O)=O)cc2O1` [Example 1, N-[4-(4-chlorophenyl)-2.2-dimethyl-2H-1,3-benzoxazin-7-yl]methanesulfonamide] was tested. Which Ki did it give?
**A.** Its Ki is less than 500 nM.

**Q.** `Cc1cc(NS(C)(=O)=O)cc2c1C(c1ccc(F)cc1)=NC(C)(C)O2` [Example 47] was tested. Which Ki did it give?
**A.** The Ki was less than 500 nM.
